Data on eleven molecules can be found in ChEMBL document CHEMBL1909551, “Design, synthesis and in vitro evaluation of bridgehead fluoromethyl analogs of N-{2-[4-(2-methoxyphenyl)piperazin-1-yl]ethyl}-N-(pyridin-2-yl)cyclohexanecarboxamide (WAY-100635) for the 5-HT(1A) receptor” (Eur J Med Chem, 2011).

Usually Ki stands for a dissociation constant, usually derived from enzyme kinetics or from competition with a known ligand. In general, IC50 refers to the midpoint of a concentration-inhibition curve. The low end stands for greater potency, the high end for weaker potency. One may read the logD as the decadic logarithm of the distribution of all forms, ionised or not, between an organic phase and buffer at a given pH.

Data set [1] concerns Hepatocyte. The note with it: human, hepatocytes, 2.5 h.
Description: Metabolic stability in human hepatocytes assessed as compound remaining at 50 MBq after 150 mins by radioactivity-based HPLC analysis
Data set [2] addresses T1, Alpha-1A adrenergic receptor (Homo sapiens, UniProt P35348).
T1 sequence (P35348 whole entry): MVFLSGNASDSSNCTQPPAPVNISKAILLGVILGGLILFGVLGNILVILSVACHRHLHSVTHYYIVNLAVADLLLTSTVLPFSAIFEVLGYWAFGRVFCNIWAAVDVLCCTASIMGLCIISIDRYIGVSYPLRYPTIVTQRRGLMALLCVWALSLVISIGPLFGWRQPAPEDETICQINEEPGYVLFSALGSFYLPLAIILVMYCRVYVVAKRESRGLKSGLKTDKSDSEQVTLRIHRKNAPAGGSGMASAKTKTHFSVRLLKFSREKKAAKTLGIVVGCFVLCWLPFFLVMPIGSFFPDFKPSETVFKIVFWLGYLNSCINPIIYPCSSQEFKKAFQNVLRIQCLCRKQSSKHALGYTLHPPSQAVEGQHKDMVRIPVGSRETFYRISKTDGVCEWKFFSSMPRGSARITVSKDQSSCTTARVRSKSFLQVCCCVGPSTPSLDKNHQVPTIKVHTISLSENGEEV
Description: Binding affinity to alpha1A receptor

The target in data set [3] is T2, 5-hydroxytryptamine receptor 1A (Homo sapiens, UniProt P08908).
T2 sequence (P08908 whole entry): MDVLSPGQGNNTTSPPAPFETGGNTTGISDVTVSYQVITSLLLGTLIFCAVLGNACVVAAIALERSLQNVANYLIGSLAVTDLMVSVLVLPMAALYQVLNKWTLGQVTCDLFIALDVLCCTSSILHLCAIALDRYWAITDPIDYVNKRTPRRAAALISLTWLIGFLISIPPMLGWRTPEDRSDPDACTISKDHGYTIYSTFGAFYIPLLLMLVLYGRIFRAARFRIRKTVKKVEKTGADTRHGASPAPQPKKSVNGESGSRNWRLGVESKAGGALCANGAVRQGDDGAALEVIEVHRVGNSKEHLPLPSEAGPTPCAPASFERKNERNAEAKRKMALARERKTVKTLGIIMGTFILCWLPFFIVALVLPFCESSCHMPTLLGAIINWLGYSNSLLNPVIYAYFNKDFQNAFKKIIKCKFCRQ
The data set can be described thus: biochemical.
Description: Displacement of [3H]8-OH-DPAT from human 5HT1A receptor expressed in HEK293 EBNA cells after 2 hrs by liquid scintillation counting

In data set [4] the target is 5-hydroxytryptamine receptor 7 (Homo sapiens, UniProt P34969). The data set can be described thus: biochemical.
Chain of 5-hydroxytryptamine receptor 7 (P34969 whole entry): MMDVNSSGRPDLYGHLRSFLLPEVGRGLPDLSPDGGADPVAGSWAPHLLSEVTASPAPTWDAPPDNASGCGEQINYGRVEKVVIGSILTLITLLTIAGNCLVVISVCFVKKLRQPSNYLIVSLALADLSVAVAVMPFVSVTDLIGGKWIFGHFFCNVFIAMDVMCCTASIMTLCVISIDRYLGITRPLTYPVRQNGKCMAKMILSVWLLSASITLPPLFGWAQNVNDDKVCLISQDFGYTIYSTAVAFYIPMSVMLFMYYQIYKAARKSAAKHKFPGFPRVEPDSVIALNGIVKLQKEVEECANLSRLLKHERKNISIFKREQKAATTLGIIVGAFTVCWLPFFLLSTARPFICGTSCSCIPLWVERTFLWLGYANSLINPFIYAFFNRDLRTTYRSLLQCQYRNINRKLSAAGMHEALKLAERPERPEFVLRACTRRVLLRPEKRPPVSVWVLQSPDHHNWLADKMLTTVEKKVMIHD
Description: Displacement of [3H]LSD from 5HT7 receptor expressed in HEK293 EBNA cells by radioligand binding assay
Data set [5] concerns the target 5-hydroxytryptamine receptor 1D (Homo sapiens, UniProt P28221). Description: biochemical.
Description: Displacement of [3H]GR127543 from 5HT1D receptor expressed in HEK293 EBNA cells by radioligand binding assay
The target of data set [6] is T3, Alpha-1B adrenergic receptor (Homo sapiens, UniProt P35368).
T3 sequence (P35368 whole entry): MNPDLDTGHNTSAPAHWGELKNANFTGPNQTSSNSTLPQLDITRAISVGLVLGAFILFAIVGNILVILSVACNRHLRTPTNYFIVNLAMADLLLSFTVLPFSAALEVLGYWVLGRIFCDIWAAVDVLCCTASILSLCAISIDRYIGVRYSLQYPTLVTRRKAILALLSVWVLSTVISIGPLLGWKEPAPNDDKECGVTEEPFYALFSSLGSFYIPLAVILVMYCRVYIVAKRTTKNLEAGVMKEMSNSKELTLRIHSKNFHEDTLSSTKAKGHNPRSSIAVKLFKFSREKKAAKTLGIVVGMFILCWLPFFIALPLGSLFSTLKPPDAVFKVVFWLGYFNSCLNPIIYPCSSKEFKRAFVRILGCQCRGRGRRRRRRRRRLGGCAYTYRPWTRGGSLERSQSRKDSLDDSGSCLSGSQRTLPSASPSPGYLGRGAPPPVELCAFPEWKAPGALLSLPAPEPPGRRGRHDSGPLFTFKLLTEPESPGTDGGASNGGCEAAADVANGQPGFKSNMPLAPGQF
Description: biochemical.
Description: Displacement of [3H]prazosin from Alpha-1B receptor expressed in HEK293 EBNA cells by radioligand binding assay

A further data set has as its target T4, D(4) dopamine receptor (Homo sapiens, UniProt P21917).
T4 sequence (P21917 whole entry): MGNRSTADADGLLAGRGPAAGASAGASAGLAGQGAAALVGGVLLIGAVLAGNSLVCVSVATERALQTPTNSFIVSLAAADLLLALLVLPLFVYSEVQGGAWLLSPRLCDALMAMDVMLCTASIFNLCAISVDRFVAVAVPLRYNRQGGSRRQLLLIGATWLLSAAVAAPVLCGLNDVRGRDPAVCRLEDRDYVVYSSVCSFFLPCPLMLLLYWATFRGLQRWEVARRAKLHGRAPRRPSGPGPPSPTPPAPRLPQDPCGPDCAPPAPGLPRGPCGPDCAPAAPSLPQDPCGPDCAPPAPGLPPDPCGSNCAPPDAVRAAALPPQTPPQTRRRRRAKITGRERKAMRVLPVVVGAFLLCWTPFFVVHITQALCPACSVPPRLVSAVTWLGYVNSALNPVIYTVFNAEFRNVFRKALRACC
The data set can be described thus: biochemical.

Data set [7] concerns the target T1, Alpha-1A adrenergic receptor. The data set can be described thus: biochemical.
Description: Displacement of [3H]prazosin from alpha1A receptor expressed in HEK293 EBNA cells by radioligand binding assay
The target of data set [8] is 5-hydroxytryptamine receptor 2B (Homo sapiens, UniProt P41595). Description: biochemical.
Chain of 5-hydroxytryptamine receptor 2B (P41595 whole entry): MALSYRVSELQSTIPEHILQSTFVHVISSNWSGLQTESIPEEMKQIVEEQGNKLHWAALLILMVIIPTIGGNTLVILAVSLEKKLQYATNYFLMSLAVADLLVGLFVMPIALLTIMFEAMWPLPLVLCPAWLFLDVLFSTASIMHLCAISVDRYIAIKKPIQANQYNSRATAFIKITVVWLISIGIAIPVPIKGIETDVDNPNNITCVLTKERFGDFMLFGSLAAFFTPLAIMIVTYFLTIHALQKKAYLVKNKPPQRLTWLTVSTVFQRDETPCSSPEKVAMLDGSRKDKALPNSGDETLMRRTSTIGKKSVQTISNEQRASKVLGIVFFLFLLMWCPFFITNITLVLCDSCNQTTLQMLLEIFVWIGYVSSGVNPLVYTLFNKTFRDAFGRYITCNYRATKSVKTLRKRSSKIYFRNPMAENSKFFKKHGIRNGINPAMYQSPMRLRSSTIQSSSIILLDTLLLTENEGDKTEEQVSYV
Description: Displacement of [3H]LSD from 5HT2B receptor expressed in HEK293 EBNA cells by radioligand binding assay
Another data set is described as follows: physchem. The note with it: buffer, pH 7.4.
In data set [9] the target is T5, Alpha-1D adrenergic receptor (Homo sapiens, UniProt P25100).
T5 sequence (P25100 whole entry): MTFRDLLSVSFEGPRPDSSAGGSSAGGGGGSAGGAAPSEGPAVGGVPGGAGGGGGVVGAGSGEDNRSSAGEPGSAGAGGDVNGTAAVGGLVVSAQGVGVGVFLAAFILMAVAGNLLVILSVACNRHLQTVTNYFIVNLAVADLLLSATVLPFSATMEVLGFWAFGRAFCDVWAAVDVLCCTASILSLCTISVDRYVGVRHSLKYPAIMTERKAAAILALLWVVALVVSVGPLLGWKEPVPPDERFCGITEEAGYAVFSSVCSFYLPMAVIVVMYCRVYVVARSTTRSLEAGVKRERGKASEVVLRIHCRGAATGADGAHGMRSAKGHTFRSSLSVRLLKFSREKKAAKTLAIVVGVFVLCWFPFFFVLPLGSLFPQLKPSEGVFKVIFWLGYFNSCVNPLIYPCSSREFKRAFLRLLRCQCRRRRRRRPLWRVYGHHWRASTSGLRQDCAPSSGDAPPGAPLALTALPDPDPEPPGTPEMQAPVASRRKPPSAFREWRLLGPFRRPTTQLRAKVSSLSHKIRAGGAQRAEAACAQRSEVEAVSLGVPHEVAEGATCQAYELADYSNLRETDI
The data set can be described thus: biochemical.
Description: Displacement of [3H]prazosin from Alpha-1D receptor expressed in HEK293 EBNA cells by radioligand binding assay

The target of data set [10] is T2, 5-hydroxytryptamine receptor 1A. Description: biochemical. This is another data set of the same source.
Description: Displacement of [3H]8-OH-DPAT from 5HT1A receptor expressed in HEK293 EBNA cells by radioligand binding assay
Data set [11] concerns Hepatocyte. Conditions: human, hepatocytes, 0.25 h.
Description: Metabolic stability in human hepatocytes assessed as compound remaining at 50 MBq after 15 mins by radioactivity-based HPLC analysis
Data set [12] deals with Hepatocyte. Conditions: human, hepatocytes, 1 h.
Description: Metabolic stability in human hepatocytes assessed as compound remaining at 50 MBq after 60 mins by radioactivity-based HPLC analysis

Chain of 5-hydroxytryptamine receptor 1D (P28221 whole entry): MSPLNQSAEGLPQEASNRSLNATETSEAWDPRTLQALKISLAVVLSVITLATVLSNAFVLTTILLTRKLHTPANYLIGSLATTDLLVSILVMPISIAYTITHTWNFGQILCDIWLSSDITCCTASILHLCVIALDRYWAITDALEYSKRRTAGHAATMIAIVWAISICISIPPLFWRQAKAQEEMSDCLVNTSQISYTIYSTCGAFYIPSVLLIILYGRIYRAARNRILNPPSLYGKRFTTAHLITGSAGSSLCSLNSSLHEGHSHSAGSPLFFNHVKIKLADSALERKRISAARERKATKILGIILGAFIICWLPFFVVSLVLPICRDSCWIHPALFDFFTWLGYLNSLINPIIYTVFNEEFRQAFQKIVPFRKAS
Description for D(4) dopamine receptor: Displacement of [3H]N-methylspiperone from dopamine D4 receptor expressed in HEK293 EBNA cells by radioligand binding assay

`COc1ccccc1N1CCN(CCN(C(=O)c2ccc([18F])cc2)c2ccccn2)CC1` returned a Stability in the data set with Hepatocyte [1] of 8.4%. In addition, the Ki in [2] was determined as 0.151 µM.

In data set [3], `COc1ccccc1N1CCN(CCN(C(=O)C23CC4CC(CC(CF)(C4)C2)C3)c2ccccn2)CC1` displayed an IC50 of 0.00427 µM and a Ki of 0.00182 µM.

On to `COc1ccccc1N1CCN(CCN(C(=O)C23C4C5C2C2C3C4C52CF)c2ccccn2)CC1` (centres undefined), for which the Ki in data set [4] is 0.132 µM; in data set [3] it was 0.00054 µM; in data set [5], 0.122 µM; in data set [6], 0.176 µM; at D(4) dopamine receptor, 0.071 µM; in data set [7], 0.016 µM. Further, the Ki amounted to 0.099 µM in data set [8], 0.027 µM in data set [9] and 0.0002 µM in data set [10]. Besides, inhibition in [3] was half-maximal at 0.00127 µM (IC50). This molecule showed a logD in “physchem” of 2.94.

With `COc1ccccc1N1CCN(CCN(C(=O)C23CCC(CF)(CC2)CC3)c2ccccn2)CC1`, the Ki was 0.077 µM in data set [4]; 0.00065 µM in [3]; 0.361 µM in data set [5]; 0.11 µM in data set [6]; 0.084 µM at D(4) dopamine receptor; 0.074 µM in data set [7]. Moreover, the Ki in data set [8] came to 0.079 µM; in data set [9] it was 0.073 µM; in data set [10], 0.0011 µM. In data set [3], this molecule gave an IC50 of 0.00153 µM. The molecule further showed a logD in “physchem” of 3.37.

As for `COc1ccccc1N1CCN(CCN(C(=O)C23CCC(CF)(CC2)C3)c2ccccn2)CC1`, the Ki in [4] was determined as 0.097 µM; in data set [3], 0.00086 µM; in [5], 0.092 µM; in data set [6], 0.038 µM; on D(4) dopamine receptor it was 0.092 µM; in data set [7], 0.036 µM. Moreover, the Ki in [8] turned out to be 0.088 µM; in data set [9], 0.019 µM; in [10], 0.0009 µM. The IC50 in [3] came out at 0.00202 µM. Also, the logD in “physchem” came to 2.7.

In [3], `O=C(N(CCN1CCN(c2ccccc2O)CC1)c1ccccn1)C12CC3CC(CC(CF)(C3)C1)C2` returned an IC50 of 0.00259 µM and a Ki of 0.0011 µM.

`O=C(N(CCN1CCN(c2ccccc2O)CC1)c1ccccn1)C12C3C4C1C1C2C3C41CF` (centres undefined): in data set [3], inhibition was half-maximal at 0.00135 µM (IC50) and the affinity corresponds to a Ki of 0.00058 µM.

Regarding `O=C(N(CCN1CCN(c2ccccc2O)CC1)c1ccccn1)C12CCC(CF)(CC1)CC2`, in [3], the IC50 was 0.00176 µM and the Ki was 0.00075 µM.

In the case of `O=C(N(CCN1CCN(c2ccccc2O)CC1)c1ccccn1)C12CCC(CF)(CC1)C2`, in [3], the IC50 stood at 0.00174 µM and the affinity, expressed as Ki, was 0.00074 µM.

In the case of `COc1ccccc1N1CCN(CCN(C(=O)C23C4C5C2C2C3C4C52C[18F])c2ccccn2)CC1` (centres undefined), the figures for the Stability in the data set on Hepatocyte [11], in the data set with Hepatocyte [1] and in the data set with Hepatocyte [12] were 73.2%, 17.4% and 30.7%, respectively.

In data set [2], `COc1ccccc1N1CCN(CCN(C(=O)c2ccc([18F])c(C)c2)c2ccccn2)CC1` showed a Ki of 0.0132 µM.
